Source: publication PMC7802074, “Azanitrile Inhibitors of the SmCB1 Protease Target Are Lethal to Schistosoma mansoni: Structural and Mechanistic Insights into Chemotype Reactivity” (ACS Infectious Diseases, 2020)
Values joined by “and” are separate entries in the source; they are usually repeats but may differ in a detail not shown here. Equal entries are not always repeated. Where two headings read alike, the source gives them in different places.

Legend:
recombinant SmCB1 = recombinant SmCB1 (Schistosoma mansoni, UniProt Q8MNY2, T185A/T300A); test: SmCB1 kinetic inhibition assay with fluorogenic substrate Cbz-Phe-Arg-AMC; assay type: biochemical; details: substrate Cbz-Phe-Arg-AMC
recombinant SmCB1, sequence (Q8MNY2 87-340 T185A/T300A): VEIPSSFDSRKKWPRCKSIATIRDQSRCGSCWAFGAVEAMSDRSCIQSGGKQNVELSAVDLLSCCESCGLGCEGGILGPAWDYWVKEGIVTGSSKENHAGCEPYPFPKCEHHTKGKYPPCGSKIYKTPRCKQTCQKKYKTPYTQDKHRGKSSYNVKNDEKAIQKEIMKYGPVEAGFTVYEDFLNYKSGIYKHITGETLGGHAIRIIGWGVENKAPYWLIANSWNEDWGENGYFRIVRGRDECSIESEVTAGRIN
Protocol: Inhibition measurements were performed in triplicates in 96-well microplates (100 μL assay volume) at 37 °C. SmCB1 (20–40 pM) was added to a mixture of the fluorogenic substrate Cbz-Phe-Arg-AMC (20 μM) and an inhibitor (0–100 μM) in 0.1 M sodium acetate, pH 5.5, containing 2.5 mM dithiothreitol and 0.1% PEG 6000. The substrate hydrolysis was monitored in an Infinite M1000 microplate reader (Tecan, Männedorf, Switzerland) at excitation and emission wavelengths of 360 and 465 nm, respectively, for up to 15 and 60 min for fast- and slow-binding inhibitors, respectively. […] For slow-binding inhibitors, an observed first-order rate constant kobs was calculated at each inhibitor concentration by fitting the progress curve to the equation P = vst + (vi – vs)(1 – […])/kobs + d, where P is the product formation, vs is the steady-state velocity, t is the reaction time, vi is the initial velocity, and d is the offset. The inhibition constant Ki′ was determined by nonlinear regression using the equation vs/v0 = 1/(1 + [I]/Ki′). The true inhibition constants Ki were then calculated using the equation Ki = Ki′/(1 + [S]/Km), where [S] is the substrate concentration and Km is the Michaelis constant. The apparent second-order rate constant k2nd′ was determined by fitting to the linear equation kobs = k2nd′[I] + koff, where koff is the first-order rate constants for the dissociation of the enzyme–inhibitor complex and the true constant k2nd was calculated by the correction k2nd = k2nd′(1 + [S]/Km). […] In none of the assay systems did the final concentration of DMSO exceed 1.5%.

[1] = system: S. mansoni newly transformed schistosomula (NTS); test: Schistosome phenotypic assay; assay type: cell-based, Schistosoma mansoni; details: for Severity score Day 1 / Severity score Day 2 / Severity score Day 3 / Severity score Day 4: 10 μM inhibitor, scale 0 (no effect) to 4 (severe); for Severity score Day 1: 24 h; for Severity score Day 2: 48 h
Protocol: Newly transformed schistosomula (NTS) of S. mansoni were prepared by mechanically transforming infective larvae (cercariae) as described previously.[70],[71] NTS (200–300 parasites) were incubated in 200 μL of Basch Medium 169 containing 5% FBS, 100 U mL^–1 penicillin, and 100 μg mL^–1 streptomycin at 5% CO2 and 37 °C.[70],[72],[73] Inhibitors were added at the final concentration of 10 μM,[20],[69] and changes in phenotypes were observed every 24 h for up to 4 days. A constrained nomenclature of “descriptors” is used to record the multiple and dynamic changes in movement, shape, and translucence of which the schistosome parasite is capable (Table S3).[70] These descriptors are then converted into an ordinal “severity score” system from 0 (no effect) to 4 (maximum effect), which allows for the relative comparison of compound effects, as described.[74],[75] Images of NTS were captured using a Zeiss Axiovert 40 C inverted microscope (10× objective) and a Zeiss AxioCam MRc digital camera controlled by AxioVision 40 (v. 4.8.1.0) software.

[2] = Table S2, carbadipeptide nitriles, read-out: SmCB1 inhibition Ki
[3] = SmCB1 inhibition Ki, Table S2, carbadipeptide nitriles
[4] = SmCB1 inhibition Ki, kinetic activity assay, pH 5.5, 37 °C

CC(C)(C)OC(=O)NCC(=O)NCC#N [Gü807]
Ki (recombinant SmCB1; [2]): > 10 µM

CC(C)C[C@H](NC(=O)c1ccc(-c2ccccc2)cc1)C(=O)NCC#N [Gü2420]
Ki (recombinant SmCB1; [2]): 0.056 ± 0.013 µM
Descriptors Day 2 (phenotypic changes) ([1]; 10 µM inhibitor): R, Dark
Descriptors Day 3 (phenotypic changes) ([1]; 10 µM inhibitor): R, Dark
Descriptors Day 4 (phenotypic changes) ([1]; 10 µM inhibitor): R, Dark
Severity score Day 1 [1]: 0
Severity score Day 2 [1]: 2
Severity score Day 3 [1]: 2
Severity score Day 4 [1]: 2

N#CCNC(=O)C1(NC(=O)c2ccc(-c3noc(-c4cccs4)n3)cc2)CCCCC1 [Compound 7c]
Ki (recombinant SmCB1; [3]): > 10 µM
Ki (recombinant SmCB1; [4]): > 100 µM
Severity score Day 1 [1]: 0
Severity score Day 2 [1]: 0
Severity score Day 3 [1]: 0
Severity score Day 4 [1]: 0

CSCC[C@@H](C#N)NC(=O)[C@H](Cc1ccccc1)NC(=O)OC(C)(C)C [Gü968]
Ki (recombinant SmCB1; [2]): > 10 µM

CC(C)[C@H](NC(=O)OCc1ccccc1)C(=O)N(C)N(C)C#N [Compound 14a]
Ki (recombinant SmCB1; [4]): 0.0883 ± 0.0104 µM
Descriptors Day 1 (phenotypic changes) ([1]; 10 µM inhibitor): R, Unc, Dark
Descriptors Day 2 (phenotypic changes) ([1]; 10 µM inhibitor): Deg
Severity score Day 1 [1]: 3
Severity score Day 2 [1]: 4
Severity score Day 3 [1]: 4
Severity score Day 4 [1]: 4

CC(C)(C)OC(=O)N[C@@H](Cc1ccccc1F)C(=O)NCC#N [Gü1242]
Ki (recombinant SmCB1; [2]): > 10 µM

N#CCNC(=O)[C@H](Cc1ccccc1)NC(=O)c1ccccc1 [Gü1135]
Ki (recombinant SmCB1; [2]): > 10 µM

CCC[C@H](NC(=O)OC(C)(C)C)C(=O)NCC#N [Gü1131]
Ki (recombinant SmCB1; [2]): > 10 µM

CN(C#N)N(C)C(=O)C1(NC(=O)c2ccc(-c3noc(-c4cccs4)n3)cc2)CCCCC1 [Compound 7a]
Ki (recombinant SmCB1; [4]): 0.229 ± 0.007 µM
Descriptors Day 1 (phenotypic changes) ([1]; 10 µM inhibitor): R, Unc, Dark
Descriptors Day 2 (phenotypic changes) ([1]; 10 µM inhibitor): Deg
Severity score Day 1 [1]: 3
Severity score Day 2 [1]: 4
Severity score Day 3 [1]: 4
Severity score Day 4 [1]: 4

CC(C)C[C@H](NC(=O)Nc1ccc(-c2noc(-c3cccs3)n2)cc1)C(=O)NCC#N [Compound 4c]
Ki (recombinant SmCB1; [3]): 6.62 ± 0.91 µM
Ki (recombinant SmCB1; [4]): 6.62 ± 0.91 µM
Descriptors Day 1 (phenotypic changes) ([1]; 10 µM inhibitor): R, S
Descriptors Day 2 (phenotypic changes) ([1]; 10 µM inhibitor): R
Descriptors Day 4 (phenotypic changes) ([1]; 10 µM inhibitor): R, S
Severity score Day 1 [1]: 2
Severity score Day 2 [1]: 1
Severity score Day 3 [1]: 0
Severity score Day 4 [1]: 2

CC(C)(C)OC(=O)N[C@@H](Cc1cccc(Br)c1)C(=O)NCC#N [Gü1122]
Ki (recombinant SmCB1; [2]): > 10 µM

CC(C)(C)OC(=O)N[C@H](C(=O)NCC#N)c1ccccc1 [Gü1130]
Ki (recombinant SmCB1; [2]): > 10 µM

CC(C)(C)OC(=O)N[C@@H](Cc1ccccc1)C(=O)NCC#N [Gü809]
Ki (recombinant SmCB1; [2]): > 10 µM

CC(C)(C)OC(=O)N1CCC[C@H]1C(=O)NCC#N [Gü936]
Ki (recombinant SmCB1; [2]): > 10 µM

CCCC[C@H](NC(=O)OC(C)(C)C)C(=O)NCC#N [Gü967]
Ki (recombinant SmCB1; [2]): 0.87 ± 0.1 µM
Severity score Day 1 [1]: 0
Severity score Day 2 [1]: 0
Severity score Day 3 [1]: 0
Severity score Day 4 [1]: 0

CC(C)C[C@H](NC(=O)NCc1ccc(-c2noc(-c3cccs3)n2)cc1)C(=O)N(C)N(C)C#N [Compound 17a]
Ki (recombinant SmCB1; [4]): 0.0583 ± 0.0028 µM
SmCB1 inhibition k2nd (second-order rate constant) (recombinant SmCB1; slow-binding azadipeptide nitriles): 3.1 ± 0.6 10^3 M^-1 s^-1
Severity score Day 1 [1]: 0 and 0/0
Severity score Day 2 [1]: 0 and 0/0
Severity score Day 3 [1]: 0
Severity score Day 4 [1]: 0

CCC(C)C(NC(=O)OCc1ccccc1)C(=O)N(C)N(C)C#N (stereo not shown) [Compound 12a]
Ki (recombinant SmCB1; [4]): 0.0717 ± 0.0044 µM
Descriptors Day 1 (phenotypic changes) ([1]; 10 µM inhibitor): Deg
Severity score Day 1 [1]: 4 and 4/4
Severity score Day 2 [1]: 4 and 4/4
Severity score Day 3 [1]: 4
Severity score Day 4 [1]: 4

CC(C)(C)OC(=O)N[C@@H](Cc1ccsc1)C(=O)NCC#N [Gü1232]
Ki (recombinant SmCB1; [2]): > 10 µM

CC(C)(C)OC(=O)N[C@@H](CC1CCCCC1)C(=O)NCC#N [Gü929]
Ki (recombinant SmCB1; [2]): > 10 µM

CC(C)(C)OC(=O)N[C@@H](Cc1cccs1)C(=O)NCC#N [Gü969]
Ki (recombinant SmCB1; [2]): 0.62 ± 0.05 µM
Severity score Day 1 [1]: 0
Severity score Day 2 [1]: 0
Severity score Day 3 [1]: 0
Severity score Day 4 [1]: 0

CC(C)(C)OC(=O)N[C@@H](CCc1ccccc1)C(=O)NCC#N [Gü1129]
Ki (recombinant SmCB1; [2]): > 10 µM

CC(C)(C)OC(=O)N[C@@H](Cc1csc2ccccc12)C(=O)NCC#N [Gü1246]
Ki (recombinant SmCB1; [2]): > 10 µM

C[C@H](NC(=O)OCc1ccccc1)C(=O)N(C)N(C)C#N [Compound 15a]
Ki (recombinant SmCB1; [4]): 0.714 ± 0.058 µM
Descriptors Day 1 (phenotypic changes) ([1]; 10 µM inhibitor): R, Unc
Descriptors Day 2 (phenotypic changes) ([1]; 10 µM inhibitor): Deg
Severity score Day 1 [1]: 2
Severity score Day 2 [1]: 4
Severity score Day 3 [1]: 4
Severity score Day 4 [1]: 4

CCC(C)C(NC(=O)OC(C)(C)C)C(=O)NCC#N (stereo not shown) [Gü932]
Ki (recombinant SmCB1; [2]): > 10 µM

C[C@H](NC(=O)OC(C)(C)C)C(=O)NCC#N [Gü933]
Ki (recombinant SmCB1; [2]): > 10 µM

CSCC[C@H](NC(=O)OC(C)(C)C)C(=O)NCC#N [Gü935]
Ki (recombinant SmCB1; [2]): > 10 µM

CC(C)(C)OC(=O)N[C@H](Cc1ccccc1)C(=O)NCC#N [Gü1133]
Ki (recombinant SmCB1; [2]): > 10 µM

CC(C)(C)OC(=O)N[C@@H](COCc1ccccc1)C(=O)NCC#N [Gü930]
Ki (recombinant SmCB1; [2]): > 10 µM

N#CCNC(=O)C1(NC(=O)OCc2ccccc2)CCCCC1 [Gü2195]
Ki (recombinant SmCB1; [2]): > 10 µM

CC(C)(C)OC(=O)N[C@@H](CC1CC1)C(=O)NCC#N [Gü1228]
Ki (recombinant SmCB1; [2]): > 10 µM

CC(C)(C)OC(=O)N[C@@H](Cc1ccc(Br)cc1)C(=O)NCC#N [Gü1121]
Ki (recombinant SmCB1; [2]): > 10 µM

CC(C)[C@H](NC(=O)OC(C)(C)C)C(=O)NCC#N [Gü931]
Ki (recombinant SmCB1; [2]): > 10 µM

CC(C)(C)OC(=O)N[C@@H](Cc1c[nH]c2ccccc12)C(=O)NCC#N [Gü916]
Ki (recombinant SmCB1; [2]): > 10 µM

CC(C)C[C@H](NC(=O)OCc1ccccc1)C(=O)NCC#N [Gü928]
Ki (recombinant SmCB1; [2]): > 10 µM

CC(C)(C)OC(=O)N[C@@H](Cc1ccccc1)C(=O)N[C@H](C#N)CC#N [Gü970]
Ki (recombinant SmCB1; [2]): > 10 µM

CN(C#N)N(C)C(=O)CNC(=O)OCc1ccccc1 [Compound 1a]
Severity score Day 1 [1]: 0 and 0/0
Severity score Day 2 [1]: 0 and 0/0
Severity score Day 3 [1]: 0
Severity score Day 4 [1]: 0
phenotype severity against NTS ([1]; 10 μM, up to 4 days): ineffective

CC[C@H](NC(=O)OC(C)(C)C)C(=O)NCC#N [Gü1132]
Ki (recombinant SmCB1; [2]): > 10 µM

CC(C)(C)OC(=O)N[C@@H](Cc1ccc(O)cc1)C(=O)NCC#N [Gü915]
Ki (recombinant SmCB1; [2]): > 10 µM

CC(C)(C)OC(=O)N[C@@H](Cc1cccc2ccccc12)C(=O)NCC#N [Gü1127]
Ki (recombinant SmCB1; [2]): > 10 µM

CC(C)C[C@H](NC(=O)OC(C)(C)C)C(=O)NCC#N [Gü914]
Ki (recombinant SmCB1; [2]): > 10 µM

CC(=O)N[C@@H](Cc1ccccc1)C(=O)NCC#N [Gü1134]
Ki (recombinant SmCB1; [2]): > 10 µM

CC(C)(C)OC(=O)N[C@@H](Cc1ccc(F)cc1)C(=O)NCC#N [Gü1237]
Ki (recombinant SmCB1; [2]): > 10 µM

CC(C)(C)OC(=O)N[C@@H](Cc1cccc(F)c1)C(=O)NCC#N [Gü1239]
Ki (recombinant SmCB1; [2]): > 10 µM
